Reference: patent US20240391882A1 (Mirati Therapeutics, Inc., priority 2023, published 2024)

Assays:
Type in all cases: cell-based
[1] = system: pAKT in T47D (PI3Kα H1047R mutant) cells; experiment: Inhibition of pAKT (alphaLISA Surefire Ultra AKT 1/2/3 pS473) in T47D cells; conditions: Homo sapiens; T47D (PI3Kα H1047R mutant) cells, 24 hr compound incubation, alphaLISA pS473; read-out: T47D (H1047R) pAKT 24 hr (IC50)
In short: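 Cells in HBSS were dosed from 10.4 μm (1:4 serial dilution, 10 concentrations) and incubated about 24 hours at 37° C, then lysed. pAKT S473 measured by alphaLISA after overnight bead incubation. Signal normalised to alpelisib (3.125 μm) and DMSO controls; IC50 from four-parameter fit.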

[2] = system: T47D (PI3Kα H1047R mutant) cells; experiment: Cell viability (CellTiter-Glo 2.0) in T47D cells; conditions: Homo sapiens, T47D, 72 h, approximately 72 hours
In short: (§1)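 SKBR3 or T47D cells, 1000 per well, were seeded overnight and then exposed ~72 h at 37° C to 10 concentrations of compound, 1:4 dilutions from 10 μm. Viability read by CellTiter-Glo luminescence as percent of vehicle; IC50 from four-parameter variable-slope fit.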

[3] = system: SKBR3 (PI3Kα wild type) cells; experiment: Cell viability (CellTiter-Glo 2.0) in SKBR3 cells; conditions: Homo sapiens, SK-BR-3; SKBR3 (PI3Kα wild type) cells, approximately 72 hours, CellTiter-Glo 2.0; read-out: SKBR3 (WT) Viability IC50
In short: as §1

Compound	IC50 [1]	IC50 [2]	IC50 [3]
C[C@@H](Nc1ccc(Cl)nc1C(=O)O)c1cc(C(F)F)cc2nc(C#N)c(N3CCOCC3)nc12 [Example 231, (R)-6-chloro-3-((1-(2-cyano-7-(difluoromethyl)-3-morpholinoquinoxalin-5-yl)ethyl)amino)picolinic acid]	1.3 nM	25.8 nM	> 10000 nM
Cc1cc([C@@H](C)Nc2ccc(Cl)nc2C(=O)O)c2nc(C3CCOCC3)c(C#N)nc2c1 [Example 233, (R)-6-chloro-3-((1-(2-cyano-7-methyl-3-(tetrahydro-2H-pyran-4-yl)quinoxalin-5-yl)ethyl)amino)picolinic acid]	0.17 nM	84.4 nM	> 10000 nM
Cc1cc([C@@H](C)Nc2ccc(Cl)nc2C(=O)O)c2nc(N3CCO[C@H](CO)C3)c(C#N)nc2c1 [Example 235A, 6-chloro-3-(((R)-1-(2-cyano-3-((S)-2-(hydroxymethyl)morpholino)-7-methylquinoxalin-5-yl)ethyl)amino)picolinic acid]	2 nM	183 nM	> 10000 nM
Cc1cc([C@@H](C)Nc2ccc(Cl)nc2C(=O)O)c2nc(N3CCO[C@@H](CO)C3)c(C#N)nc2c1 [Example 235B, 6-chloro-3-(((R)-1-(2-cyano-3-((R)-2-(hydroxymethyl)morpholino)-7-methylquinoxalin-5-yl)ethyl)amino)picolinic acid]	1.8 nM	262 nM	> 10000 nM
COC[C@@H]1CN(c2nc3c([C@@H](C)Nc4ccc(Cl)nc4C(=O)O)cc(C)cc3nc2C#N)CCO1 [Example 236A, 6-chloro-3-(((R)-1-(2-cyano-3-((S)-2-(methoxymethyl)morpholino)-7-methylquinoxalin-5-yl)ethyl)amino)picolinic acid]	0.89 nM	52.8 nM	> 10000 nM
COC[C@H]1CN(c2nc3c([C@@H](C)Nc4ccc(Cl)nc4C(=O)O)cc(C)cc3nc2C#N)CCO1 [Example 236B, 6-chloro-3-(((R)-1-(2-cyano-3-((R)-2-(methoxymethyl)morpholino)-7-methylquinoxalin-5-yl)ethyl)amino)picolinic acid]	3.6 nM	217 nM	> 10000 nM
Cc1cc([C@@H](C)Nc2ccc(Cl)nc2C(=O)O)c2nc(N3C[C@@H](C)OC[C@H]3C)c(C#N)nc2c1 [Example 237A, 6-chloro-3-(((R)-1-(2-cyano-3-((2R,5R)-2,5-dimethylmorpholino)-7-methylquinoxalin-5-yl)ethyl)amino)picolinic acid]	4.3 nM	137 nM	8170 nM
Cc1cc([C@@H](C)Nc2ccc(Cl)nc2C(=O)O)c2nc(N3C[C@H](C)OC[C@@H]3C)c(C#N)nc2c1 [Example 237B, 6-chloro-3-(((R)-1-(2-cyano-3-((2S,5S)-2,5-dimethylmorpholino)-7-methylquinoxalin-5-yl)ethyl)amino)picolinic acid]	6.1 nM	152 nM	3800 nM
Cc1cc([C@@H](C)Nc2ccc(Cl)nc2C(=O)O)c2nc(N3C[C@H](C)OC[C@H]3C)c(C#N)nc2c1 [Example 238A, 6-chloro-3-(((R)-1-(2-cyano-3-((2S,5R)-2,5-dimethylmorpholino)-7-methylquinoxalin-5-yl)ethyl)amino)picolinic acid]	10.4 nM	216 nM	> 10000 nM
Cc1cc([C@@H](C)Nc2ccc(Cl)nc2C(=O)O)c2nc(N3C[C@@H](C)OC[C@@H]3C)c(C#N)nc2c1 [Example 238B, 6-chloro-3-(((R)-1-(2-cyano-3-((2R,5S)-2,5-dimethylmorpholino)-7-methylquinoxalin-5-yl)ethyl)amino)picolinic acid]	3.5 nM	117 nM	> 10000 nM
Cc1cc([C@@H](C)Nc2ccc(Cl)nc2C(=O)O)c2nc(N3CCC4(COC4)C3)c(C#N)nc2c1 [Example 240, (R)-6-chloro-3-((1-(2-cyano-7-methyl-3-(2-oxa-6-azaspiro[3.4]octan-6-yl)quinoxalin-5-yl)ethyl)amino)picolinic acid]	1.6 nM	16 nM	7990 nM
Cc1cc([C@@H](C)Nc2ccc(Cl)nc2C(=O)O)c2nc(N3CCCOCC3)c(C#N)nc2c1 [Example 242, (R)-6-chloro-3-((1-(2-cyano-7-methyl-3-(1,4-oxazepan-4-yl)quinoxalin-5-yl)ethyl)amino)picolinic acid]	0.28 nM	35 nM	8260 nM
Cc1cc([C@@H](C)Nc2ccc(Cl)nc2C(=O)O)c2nc(N3C[C@@H](F)[C@@H](C)C3)c(C#N)nc2c1 [Example 245, 6-chloro-3-(((R)-1-(2-cyano-3-((3S,4S)-3-fluoro-4-methylpyrrolidin-1-yl)-7-methylquinoxalin-5-yl)ethyl)amino)picolinic acid]	1.1 nM	63 nM	5510 nM
Cc1cc([C@@H](C)Nc2ccc(Cl)nc2C(=O)O)c2nc(N3C[C@@H](F)C[C@H]3C)c(C#N)nc2c1 [Example 246A, 6-chloro-3-(((R)-1-(2-cyano-3-((2R,4S)-4-fluoro-2-methylpyrrolidin-1-yl)-7-methylquinoxalin-5-yl)ethyl)amino)picolinic acid]	0.69 nM	35 nM	> 10000 nM
Cc1cc([C@@H](C)Nc2ccc(Cl)nc2C(=O)O)c2nc(N3C[C@H](F)C[C@@H]3C)c(C#N)nc2c1 [Example 246B, 6-chloro-3-(((R)-1-(2-cyano-3-((2S,4R)-4-fluoro-2-methylpyrrolidin-1-yl)-7-methylquinoxalin-5-yl)ethyl)amino)picolinic acid]	1.8 nM	61 nM	4920 nM
Cc1cc([C@@H](C)Nc2ccc(Cl)nc2C(=O)O)c2nc(N3C[C@H](F)C[C@H]3C)c(C#N)nc2c1 [Example 246C, 6-chloro-3-(((R)-1-(2-cyano-3-((2R,4R)-4-fluoro-2-methylpyrrolidin-1-yl)-7-methylquinoxalin-5-yl)ethyl)amino)picolinic acid]	0.97 nM	46 nM	3400 nM
Cc1cc([C@@H](C)Nc2ccc(Cl)nc2C(=O)O)c2nc(N3C[C@@H](F)C[C@@H]3C)c(C#N)nc2c1 [Example 246D, 6-chloro-3-(((R)-1-(2-cyano-3-((2S,4S)-4-fluoro-2-methylpyrrolidin-1-yl)-7-methylquinoxalin-5-yl)ethyl)amino)picolinic acid]	6.8 nM	158 nM	6220 nM
Cc1cc([C@@H](C)Nc2ccc(Cl)nc2C(=O)O)c2nc(N3CCC4(CC3)COC4)c(C#N)nc2c1 [Example 249, (R)-6-chloro-3-((1-(2-cyano-7-methyl-3-(2-oxa-7-azaspiro[3.5]nonan-7-yl)quinoxalin-5-yl)ethyl)amino)picolinic acid]	1.7 nM	16 nM	6650 nM
Cc1cc([C@@H](C)Nc2ccc(Cl)nc2C(=O)O)c2nc(N3CCC4(CCO4)CC3)c(C#N)nc2c1 [Example 250, (R)-6-chloro-3-((1-(2-cyano-7-methyl-3-(1-oxa-7-azaspiro[3.5]nonan-7-yl)quinoxalin-5-yl)ethyl)amino)picolinic acid]	1.2 nM	37 nM	4890 nM
Cc1cc([C@@H](C)Nc2ccc(Cl)nc2C(=O)O)c2nc(N3CC4(CCOC4)C3)c(C#N)nc2c1 [Example 251, (R)-6-chloro-3-((1-(2-cyano-7-methyl-3-(6-oxa-2-azaspiro[3.4]octan-2-yl)quinoxalin-5-yl)ethyl)amino)picolinic acid]	1.1 nM	11 nM	> 10000 nM
Cc1cc([C@@H](C)Nc2ccc(Cl)nc2C(=O)O)c2nc(N3CC4(CCCO4)C3)c(C#N)nc2c1 [Example 252, (R)-6-chloro-3-((1-(2-cyano-7-methyl-3-(5-oxa-2-azaspiro[3.4]octan-2-yl)quinoxalin-5-yl)ethyl)amino)picolinic acidS]	2.7 nM	119 nM	5260 nM
Cc1cc([C@@H](C)Nc2ccc(Cl)nc2C(=O)O)c2nc(N3CC4(C3)CC(F)(F)C4)c(C#N)nc2c1 [Example 255, (R)-6-chloro-3-((1-(2-cyano-3-(6,6-difluoro-2-azaspiro[3.3]heptan-2-yl)-7-methylquinoxalin-5-yl)ethyl)amino)picolinic acid]	3.7 nM	170 nM	> 10000 nM
Cc1cc([C@@H](C)Nc2ccc(Cl)nc2C(=O)O)c2nc(N3CC4(CCC4(F)F)C3)c(C#N)nc2c1 [Example 256, (R)-6-chloro-3-((1-(2-cyano-3-(5,5-difluoro-2-azaspiro[3.3]heptan-2-yl)-7-methylquinoxalin-5-yl)ethyl)amino)picolinic acid]	0.11 nM	310 nM	> 10000 nM
Cc1cc([C@@H](C)Nc2ccc(Cl)nc2C(=O)O)c2nc(N3CC4(CC(F)C4)C3)c(C#N)nc2c1 [Example 258, (R)-6-chloro-3-((1-(2-cyano-3-(6-fluoro-2-azaspiro[3.3]heptan-2-yl)-7-methylquinoxalin-5-yl)ethyl)amino)picolinic acid]	2.99 nM	86 nM	8700 nM
Cc1cc([C@@H](C)Nc2ccc(Cl)nc2C(=O)O)c2nc(N3CC4(CC(O)C4)C3)c(C#N)nc2c1 [Example 259, (R)-6-chloro-3-((1-(2-cyano-3-(6-hydroxy-2-azaspiro[3.3]heptan-2-yl)-7-methylquinoxalin-5-yl)ethyl)amino)picolinic acid]	1.5 nM	75 nM	> 10000 nM
